Literature values, collected in US9011938B2, “Methods and formulations for treating chronic liver disease” (priority 2008, dated 2015).
Structures can show the parent of a compound that is named as a salt.

Experiments:
[1] = tested on: rats with fatty liver induced by a high-fat diet
[2] = tested on: tumor necrosis factor-alpha (TNF-α); settings: subjects suffering from alcoholic hepatitis
[3] = tested on: mice induced with an immunological liver injury
[4] = tested on: HCV internal ribosome entry site (IRES); settings: in vitro, dose-dependant, not competitive binding

**Q.** For COc1ccc2cc3[n+](cc2c1OC)CCc1cc2c(cc1-3)OCO2 [berberine hydrochloride], which hepatic fat degeneration [1] is on record?
**A.** attenuates

**Q.** With N[C@@H](CCC(=O)N[C@@H](CS)C(=O)NCC(=O)O)C(=O)O [glutathione, Glutathione] as the compound, how does the TNF-α activity [2] read?
**A.** inhibits

**Q.** Which results are given for C[C@@]12C[C@@]3(O)O[C@@H](O1)[C@]1(COC(=O)c4ccccc4)[C@H]3C[C@@]12O[C@@H]1O[C@H](CO)[C@@H](O)[C@H](O)[C@H]1O [paeoniflorin]?
**A.** increase in TNF-alpha, lipopolysaccharide binding protein, and CD14 mRNA expression in mouse liver [3]: significantly decreased; serum ALT activities [3]: significantly decrease

**Q.** For cyanocobalamin [vitamin B12], which “HCV IRES-dependent translation of a reporter gene” value [4] is on record?
**A.** inhibit
